In this assay the target is GHS-R (Homo sapiens, UniProt Q92847). Description: cell based assay of GHS-R antagonist/agonist activity. Also noted: key: A refers to a compound having antagonist activity with Ki<100 nM in a cell based assay; B refers to a compound having agonist activity with EC50<100 nM in a cell based assay; C refers to a compound having antagonist activity of Ki>100 nM and <1500 nM in a cell based assay; D refers to a compound having antagonist activity with Ki, <100 nM and agonist activity with EC50<100 nM in a cell-based assay; E refers to other exemplary compounds. The note with it: GHS-R antagonist Ki and/or agonist EC50 class. In a few lines:
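COS-7 cells transfected with GHS-R, labelled with [3H]-myo-inositol, preincubated in 10 mM LiCl buffer pH 7.4, then given compound 45 min at 37 °C; [3H]-IP isolated by anion exchange. Alternatively, CREB-luciferase reporter in transfected HEK293 with 5 h compound exposure. IC50/EC50 by nonlinear regression.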
Chain of GHS-R (Q92847 whole entry, species assumed): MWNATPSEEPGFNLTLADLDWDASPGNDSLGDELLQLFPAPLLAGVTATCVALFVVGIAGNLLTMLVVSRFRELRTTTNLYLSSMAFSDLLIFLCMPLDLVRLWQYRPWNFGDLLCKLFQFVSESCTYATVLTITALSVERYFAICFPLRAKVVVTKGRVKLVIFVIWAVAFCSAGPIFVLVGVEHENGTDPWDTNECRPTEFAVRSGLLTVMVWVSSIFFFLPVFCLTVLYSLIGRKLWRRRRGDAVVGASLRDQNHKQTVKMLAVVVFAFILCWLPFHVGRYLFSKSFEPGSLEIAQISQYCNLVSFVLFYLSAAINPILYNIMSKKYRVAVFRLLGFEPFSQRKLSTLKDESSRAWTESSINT
Turning to `CCN1CCC[C@@H]1CNC(=O)N[C@H](COCc1ccccc1)C(=O)N1CCC2(CC1)CN(S(C)(=O)=O)c1ccccc12` [Compound 96], the Activity entry is “E”.

As for `CS(=O)(=O)N1CC2(CCN(C(=O)[C@@H](COCc3ccccc3)NC(=O)NCCN3CCCCC3)CC2)c2ccccc21` [Compound 97], the Activity entry is reported as “E”.

In the case of `CC(C)(C)OC(=O)N1CC=C(C(=O)N[C@H](COCc2ccccc2)C(=O)N2CCC3(CC2)CN(S(C)(=O)=O)c2ccccc23)CC1` [Compound 98], the Activity entry is given as “E”.

`CN1CC=C(C(=O)N[C@H](COCc2ccccc2)C(=O)N2CCC3(CC2)CN(S(C)(=O)=O)c2ccccc23)CC1` [Compound 99]: the Activity result is “E”.

For the compound `CCN1CC=C(C(=O)N[C@H](COCc2ccccc2)C(=O)N2CCC3(CC2)CN(S(C)(=O)=O)c2ccccc23)CC1` [Compound 100], the Activity entry is listed as “E”.

Consider `CCN(CCS(=O)(=O)N[C@H](COCc1ccccc1)C(=O)N1CCC2(CC1)CN(S(C)(=O)=O)c1ccccc12)C(C)C` [Compound 101], for which the Activity entry was “E”.

For the compound `CC(C)CCN1CC=C(C(=O)N[C@H](COCc2ccccc2)C(=O)N2CCC3(CC2)CN(S(C)(=O)=O)c2ccccc23)CC1` [Compound 102], the Activity result is recorded as “E”.

For the compound `CC(C)(C)OC(=O)N1CCC(CNC(COCc2ccccc2)C(=O)N2CCC3(CC2)CN(S(C)(=O)=O)c2ccccc23)CC1` (stereo not shown) [Compound 103], the Activity result is reported as “E”.

On to `CS(=O)(=O)N1CC2(CCN(C(=O)C(COCc3ccccc3)NCC3CCNCC3)CC2)c2ccccc21` (stereo not shown) [Compound 104], for which the Activity entry is recorded as “E”.

As for `CS(=O)(=O)N1CC2(CCN(C(=O)[C@@H](COCc3ccccc3)NS(=O)(=O)CCN3CCC3)CC2)c2ccccc21` [Compound 105], the Activity result is “E”.

On to `CC(C)(C)OC(=O)N1CCC=C(C(=O)N[C@H](COCc2ccccc2)C(=O)N2CCC3(CC2)CN(S(C)(=O)=O)c2ccccc23)C1` [Compound 106], for which the Activity result was “E”.

As for `CS(=O)(=O)N1CC2(CCN(C(=O)[C@@H](COCc3ccccc3)NC(=O)C3=CCCNC3)CC2)c2ccccc21` [Compound 107], the Activity entry is “E”.

Turning to `CC(=O)N(CC1CCN(C(=O)OC(C)(C)C)CC1)[C@H](COCc1ccccc1)C(=O)N1CCC2(CC1)CN(S(C)(=O)=O)c1ccccc12` [Compound 108], the Activity result is “E”.

For `CC(C)N1CCC(C(=O)N[C@H](COCc2ccccc2)C(=O)N2CCC3(CC2)CN(S(C)(=O)=O)c2ccccc23)CC1` [Compound 110], the Activity entry was “E”.

As to `CCN(CC)CCC(=O)N[C@H](COCc1ccccc1)C(=O)N1CCC2(CC1)CN(S(C)(=O)=O)c1ccccc12` [Compound 111], the Activity result is reported as “E”.

As to `CC1=NCCC(C(=O)N[C@H](COCc2ccccc2)C(=O)N2CCC3(CC2)CN(S(C)(=O)=O)c2ccccc23)N1` (stereo partly shown) [Compound 112], the Activity result is given as “E”.

Turning to `CN1CCC[C@H]1CC(=O)N[C@H](COCc1ccccc1)C(=O)N1CCC2(CC1)CN(S(C)(=O)=O)c1ccccc12` [Compound 113], the Activity result is on record as “E”.

`CS(=O)(=O)N1CC2(CCN(C(=O)[C@@H](COCc3ccccc3)NC(=O)[C@@H]3CCC[C@H](CN)C3)CC2)c2ccccc21` [Compound 114]: the Activity entry is “E”.

In the case of `CN1CCC(C(=O)N[C@H](COCc2ccccc2)C(=O)N2CCC3(CC2)CN(S(C)(=O)=O)c2ccccc23)C1` (stereo partly shown) [Compound 115], the Activity result is reported as “E”.

As to `CN1CCC[C@H](C(=O)N[C@H](COCc2ccccc2)C(=O)N2CCC3(CC2)CN(S(C)(=O)=O)c2ccccc23)C1` [Compound 116], the Activity entry was “E”.

With `CS(=O)(=O)N1CC2(CCN(C(=O)[C@@H](COCc3ccccc3)NC(=O)C3(N)CCCCC3)CC2)c2ccccc21` [Compound 117], the Activity entry is “E”.

Regarding `CN(C)C1(C(=O)N[C@H](COCc2ccccc2)C(=O)N2CCC3(CC2)CN(S(C)(=O)=O)c2ccccc23)CCCCC1` [Compound 118], the Activity entry was “E”.

Regarding `CN(C)C1(C(=O)N[C@H](COCc2ccccc2)C(=O)N2CCC3(CC2)CN(S(C)(=O)=O)c2ccccc23)CCCC1` [Compound 119], the Activity entry is “E”.

Take `CS(=O)(=O)N1CC2(CCN(C(=O)[C@@H](COCc3ccccc3)NC(=O)C3(N)CC3)CC2)c2ccccc21` [Compound 120]: the Activity entry is given as “E”.

For `CS(=O)(=O)N1CC2(CCN(C(=O)[C@@H](COCc3ccccc3)NC(=O)c3ccc(CN)cc3)CC2)c2ccccc21` [Compound 121], the Activity entry is “E”.

Turning to `CS(=O)(=O)N1CC2(CCN(C(=O)[C@@H](COCc3ccccc3)NC(=O)c3cccc(CN)c3)CC2)c2ccccc21` [Compound 122], the Activity entry is reported as “E”.

Take `CN(C)CC(=O)N[C@H](Cc1ccccc1)C(=O)N1CCC2(CC1)CN(S(C)(=O)=O)c1ccccc12` [Compound 123]: the Activity entry is recorded as “E”.

Regarding `CN(C)CC(=O)N[C@@H](Cc1ccccc1)C(=O)N1CCC2(CC1)CN(S(C)(=O)=O)c1ccccc12` [Compound 124], the Activity result was “E”.

For `CC(C)(N)C(=O)N[C@H](COCc1ccccc1)C(=O)N1CCC2(CC1)CN(S(C)(=O)=O)c1ccccc12.CS(=O)(=O)O` [Compound 125], the Activity result is “B (B refers to a compound having agonist activity with EC50<100 nM in a cell based assay)”.

Turning to `CC(=O)NC(C)(C)C(=O)N[C@H](COCc1ccccc1)C(=O)N1CCC2(CC1)CN(S(C)(=O)=O)c1ccccc12` [Compound 126], the Activity result is listed as “B (B refers to a compound having agonist activity with EC50<100 nM in a cell based assay)”.

Regarding `CN(C)CC(=O)NC(C)(C)C(=O)N[C@H](COCc1ccccc1)C(=O)N1CCC2(CC1)CN(S(C)(=O)=O)c1ccccc12` [Compound 127], the Activity entry was “B (B refers to a compound having agonist activity with EC50<100 nM in a cell based assay)”.

On to `CS(=O)(=O)N1CC2(CCN(C(=O)[C@@H](COCc3ccccc3)NC(=O)C3CCNCC3)CC2)c2ccccc21` [Compound 128], for which the Activity result is listed as “B (B refers to a compound having agonist activity with EC50<100 nM in a cell based assay)”.

As for `CN[C@@H](C)C(=O)N[C@H](COCc1ccccc1)C(=O)N1CCC2(CC1)CN(S(C)(=O)=O)c1ccccc12` [Compound 129], the Activity result is recorded as “B (B refers to a compound having agonist activity with EC50<100 nM in a cell based assay)”.

Regarding `CN[C@H](C)C(=O)N[C@H](COCc1ccccc1)C(=O)N1CCC2(CC1)CN(S(C)(=O)=O)c1ccccc12` [Compound 130], the Activity result is on record as “B (B refers to a compound having agonist activity with EC50<100 nM in a cell based assay)”.

Consider `CN(C)C(C)(C)C(=O)N[C@H](COCc1ccccc1)C(=O)N1CCC2(CC1)CN(S(C)(=O)=O)c1ccccc12` [Compound 131], for which the Activity result is “B (B refers to a compound having agonist activity with EC50<100 nM in a cell based assay)”.

As for `CNC(C)(C)C(=O)N[C@H](COCc1ccccc1)C(=O)N1CCC2(CC1)CN(S(C)(=O)=O)c1ccccc12` [Compound 132], the Activity entry was “B (B refers to a compound having agonist activity with EC50<100 nM in a cell based assay)”.

Regarding `CN1CCCC[C@@H]1C(=O)N[C@H](COCc1ccccc1)C(=O)N1CCC2(CC1)CN(S(C)(=O)=O)c1ccccc12.Cl` [Compound 133], the Activity entry is listed as “B (B refers to a compound having agonist activity with EC50<100 nM in a cell based assay)”.

Consider `CS(=O)(=O)N1CC2(CCN(C(=O)[C@@H](COCc3ccccc3)NC(=O)C3(N)CCCC3)CC2)c2ccccc21` [Compound 134], for which the Activity result is “B (B refers to a compound having agonist activity with EC50<100 nM in a cell based assay)”.

On to `CN1CCC(C(=O)N[C@H](Cc2c[nH]c3ccccc23)C(=O)N2CCC3(CC2)CN(S(C)(=O)=O)c2ccccc23)CC1` [Compound 135], for which the Activity result is “E”.

For `CN1CCC(C(=O)N[C@H](CCc2ccccc2)C(=O)N2CCC3(CC2)CN(S(C)(=O)=O)c2ccccc23)CC1` [Compound 136], the Activity result is on record as “E”.

On to `C[C@@H](OCc1ccccc1)C(NC(=O)C1CCN(C)CC1)C(=O)N1CCC2(CC1)CN(S(C)(=O)=O)c1ccccc12` (stereo partly shown) [Compound 137], for which the Activity result is “E”.

Regarding `CN1CCC(C(=O)NC(Cc2ccc3ccccc3c2)C(=O)N2CCC3(CC2)CN(S(C)(=O)=O)c2ccccc23)CC1` (stereo not shown) [Compound 138], the Activity entry is on record as “E”.

Regarding `CN1CCC(NC(=O)N2C[C@H](OCc3ccccc3)CC2C(=O)N2CCC3(CC2)CN(S(C)(=O)=O)c2ccccc23)CC1` (stereo partly shown) [Compound 139], the Activity result is “E”.

With `Cc1ccc(CSC[C@H](NC(=O)C2CCN(C)CC2)C(=O)N2CCC3(CC2)CN(S(C)(=O)=O)c2ccccc23)cc1` [Compound 140], the Activity entry is given as “E”.

`CN1CCC(C(=O)N[C@H](CC(=O)N2CCC3(CC2)CN(S(C)(=O)=O)c2ccccc23)Cc2c[nH]c3ccccc23)CC1` [Compound 141]: the Activity result is “E”.

In the case of `CC(OCc1ccccc1)[C@@H](CC(=O)N1CCC2(CC1)CN(S(C)(=O)=O)c1ccccc12)NC(=O)C1CCN(C)CC1` (stereo partly shown) [Compound 142], the Activity entry is listed as “E”.

In the case of `CN1CCC(S(=O)(=O)N[C@H](COCc2ccccc2)C(=O)N2CCC3(CC2)CN(S(C)(=O)=O)c2ccccc23)CC1` [Compound 143], the Activity result is on record as “A (A refers to a compound having antagonist activity with Ki<100 nM in a cell based assay)”.

With `CS(=O)(=O)N1CC2(CCN(C(=O)[C@@H](COCc3ccccc3)NS(=O)(=O)CCN3CCOCC3)CC2)c2ccccc21` [Compound 144], the Activity result is listed as “E”.

Turning to `CC(C)(C)NCCS(=O)(=O)N[C@H](COCc1ccccc1)C(=O)N1CCC2(CC1)CN(S(C)(=O)=O)c1ccccc12` [Compound 145], the Activity result is on record as “E”.

The values are drawn from patent US7897765B2, “Therapeutic compounds and uses thereof” (Elixir Pharmaceuticals, Inc., priority 2003, dated 2011).
